Measurements as given in BigSolDB 2.1.

O=C(O)CCCC(=O)O
Conditions | solubility (mole fraction)
in cyclohexanone, 294.15 K | 0.153
in cyclohexanone, 298.45 K | 0.167
in cyclohexanone, 302.45 K | 0.181
in cyclohexanone, 307.15 K | 0.2
in cyclohexanone, 312.45 K | 0.238
in cyclohexanone, 317.05 K | 0.27
in cyclohexanone, 321.75 K | 0.309
in cyclohexanone, 326.35 K | 0.351
in cyclohexanone, 331.55 K | 0.401
in cyclohexanone, 335.25 K | 0.437
in propionic acid, 289.55 K | 0.238
in propionic acid, 294.15 K | 0.272
in propionic acid, 302.15 K | 0.337
in propionic acid, 305.65 K | 0.365
in propionic acid, 309.15 K | 0.395
in propionic acid, 312.85 K | 0.42
in propionic acid, 316.15 K | 0.447
in propionic acid, 319.65 K | 0.474
in propionic acid, 323.65 K | 0.509
in propionic acid, 332.15 K | 0.587
in ε-caprolactone, 286.25 K | 0.124
in ε-caprolactone, 291.55 K | 0.153
in ε-caprolactone, 296.15 K | 0.183
in ε-caprolactone, 300.25 K | 0.214
in ε-caprolactone, 304.45 K | 0.245
in ε-caprolactone, 308.55 K | 0.274
in ε-caprolactone, 312.45 K | 0.304
in ε-caprolactone, 316.05 K | 0.334
in ε-caprolactone, 320.25 K | 0.364
in ε-caprolactone, 325.25 K | 0.402
